From patent publication US10786468B2, “Deacetylnemorone abietane diterpenoids for use in cancer treatment” (University of South Carolina, priority 2017, dated 2020)

Experiments:
melanoma line SK-MEL-5 = test: NCI-60 one-dose screen, SK-MEL-5; type: cell-based; conditions: 10 μM, 48 hours
Description: (§1) One dose cytotoxicity screening was performed by the NCI-60 screening program of the National Institutes of Health (NIH), which is known in the art and available from the NIH. The NCI-60 panel is a collection of cancer cell lines, from various diverse tumors, which was developed in the 1980s by the National Cancer Institute to aid screening efforts for cytotoxic or cytostatic compounds.
(§2) In these screens 59 cell lines were utilized to determine the cytotoxic effect of the deacetylnemorone. […]
(§3) A control for each cell type was also simultaneously created, which was treated with 100 μL of culture media without deacetylnemorone. […] The bound stain was then dissolved in 10 mM trizma base and the absorbance was read using an automated plate reader at 515 nm.
(§4) Suspension cells were treated in the same fashion with the exception that the cells were fixed once they had settled at the bottom of the wells using 50 μL of 80% TCA. The absorbance of each well was then converted to growth percent using equation 1 (below) where Ti is the average absorbance of the samples treated with a certain concentration of the compound of this invention, Tz represents the average absorbance of the samples fixed at the time the compound of interest was added to the experimental groups, and C is the average absorbance of the media treated control. […]

HUVEC endothelial cells = test: Tube formation assay on growth factor reduced Matrigel; type: cell-based, human; conditions: 8 hours of incubation
Description: Growth factor reduced BD Matrigel (Corning), stored long-term at −20° C., was thawed on ice overnight in a 4° C. refrigerator prior to use. The following day, 50 μL of the thawed Matrigel was added to each well of a pre-chilled 96-well plate and incubated at 37° C. and 5% CO2 for approximately 30 minutes to allow the matrix to form a gel. Next, 100 μL of a cell suspension containing 20,000 HUVEC cells in cell culture media with various concentrations of deacetylnemorone was added to each well. The control consisted of HUVEC cells suspended in endothelial growth media alone. After 8 hours of incubation at 37° C. and 5% CO2, the number of tubes formed between the endothelial cells were quantified using an inverted microscope (Invitrogen EVOS FL Auto at 4× magnification).

[1] = system: HCT 116/200 (FdUrd resistant subclone of HCT 116) cells; test: MTS assay, HCT 116/200; type: cell-based
Excerpt: (§5) The human cell lines used for MTS assay screening included MG-63 (osteosarcoma), SK-OV-3 (ovarian adenocarcinoma), MDA-MB-231 (breast adenocarcinoma derived from a metastatic site), HCT 116 (colorectal carcinoma), HCT 116/200 (an FdUrd resistant subclone of HCT 116 cells), A2780ADR (a doxorubicin resistant subclone of the ovarian carcinoma A2780), and HUVEC (normal human umbilical vein endothelial cells). All cells were stored in liquid nitrogen until use. MG-63, SK-OV-3, MDA-MB-231, and HCT 116 cell lines were all obtained from ATCC. A2780ADR cells were obtained from Sigma-Aldrich. HCT 116/200 cells were obtained from Dr. Franklin G. Berger from the Center for Colon Cancer Research. HUVEC cells were obtained from Lonza. MG-63 cells were maintained in MEM medium (Corning) supplemented with 10% Fetal Bovine Essence (VWR) and 1% penicillin/streptomycin solution (Corning). […]
(§6) Cells were first grown to approximately 80% confluency within […] tissue culture flasks (VWR). […] Cells were counted using a hemocytometer and their viability was confirmed using trypan blue (Gibco). […]
(§7) After seeding, the cells were incubated for 24 hours at 37° C. and 5% CO2 to allow for cell attachment and renewal of the exponential growth phase. […] The cells were incubated for 2 hours, and the absorbance of each well at 490 nm was measured using a Spectramax 190 microplate reader.

melanoma cell lines = test: NCI-60 one-dose screen, melanoma cell lines; type: cell-based; conditions: 10 μM, 48 hours; in 6 out of 9 melanoma cell lines
Description: as §1, §2, §3, §4

[2] = system: MDA-MB-231 (breast adenocarcinoma) cells; test: MTS assay, MDA-MB-231; type: cell-based
Excerpt: as §5, §6, §7

[3] = system: SK-OV-3 (ovarian adenocarcinoma) cells; test: MTS assay, SK-OV-3; type: cell-based; conditions: SK-OV-3, 48 and 72 hours of exposure, FIG. 10
Excerpt: as §5, §6, §7

[4] = system: MDA-MB-231 breast cancer cells; test: In vitro invasion assay (cell-free gap); type: cell-based, human
Description: Cell migration of MDA-MB-231 breast cancer cells was assessed through making a cell-free gap with a Culture Insert 2 well 24 (Ibidi), consisting of two wells that were separated by a wall. A total of 70 μl of cell suspension comprising of 35×10^3 cells was added to each well. Cells were given 24 hours to attach and reach confluency. Culture inserts were then removed and cell debris was washed with PBS. Fresh culture media supplemented with different concentration of the compound of interest was added to the wells and the cells were incubated at 37° C. and 5% CO2 for 26 hours. Images were taken 0, 6, 20, and 26 hours after compound addition using a phase contrast Nikon Eclipse Ti-E inverted microscope. Quantification of invasion was performed by measuring the gap distance for three repetitions and using the following formula,
[formula] where Wn is the width of gap after incubation, and W0 is the initial width right after forming the gap. Tube Formation Assay

[5] = system: 59 cell lines of the NCI-60 panel; test: NCI-60 one-dose cytotoxicity screen, 59 cell lines; type: cell-based; conditions: 10 μM
Description: as §1, §2, §3, §4

[6] = system: A2780ADR (doxorubicin resistant subclone of ovarian carcinoma A2780) cells; test: MTS assay, A2780ADR; type: cell-based; conditions: 48 and 72 hours of exposure, FIG. 14
Excerpt: as §5, §6, §7

[7] = system: MG-63 (osteosarcoma) cells; test: MTS assay, MG-63; type: cell-based; conditions: MG-63, 48 and 72 hours of exposure, FIG. 9
Excerpt: as §5, §6, §7

[8] = system: HCT 116 (colorectal carcinoma) cells; test: MTS assay, HCT 116; type: cell-based
Excerpt: as §5, §6, §7

SKMEL5 melanoma cells = test: Cell cycle analysis (PI staining, flow cytometry); type: cell-based
Description: The effect of the deacetylnemorone on the cell cycle of SKMEL5 melanoma cells was determined using a PI staining assay. SKMEL5 cells were maintained in RPMI 1640 media supplemented with 10% FBS and 2 mM L-glutamine and incubated at 37° C. and 5% CO2. The cells were seeded in 6 well plates at a density of 300,000 cells per well. After 24 hours, the media was removed and replaced with either fresh media (control) or with media supplemented with 17.3 μM of the deacetylnemorone of FIG. 1. The cells were incubated with this treatment for 72 hours total. At 6, 12, 24, 48, and 72 hours, the cells from two wells each of the control of the treated group were trypsinized, collected in centrifuge tubes, and centrifuged at 2500 rpm for 5 minutes. The supernatant was removed, and the pellet was washed with PBS and centrifuged 2 times. The pellet was then suspended in 500 μL PBS and added 3 mL of 70% ethanol dropwise while vortexing. This mixture was then incubated at 4° C. for 24 hours. Next, the mixture was centrifuged, the supernatant was removed and the pellet was suspended in PBS and stored at 4° C. until all the samples were collected. […]

deacetylnemorone was tested, and the percent growth (melanoma line SK-MEL-5) was “negative percent growth”, the “tube formation between HUVEC cells” value (HUVEC endothelial cells; 0.1 μg/mL) was “inhibit tube formation” and the “tube formation between HUVEC cells” value (HUVEC endothelial cells; 10 μg/mL) was “inhibit tube formation”. For the same substance, the “cytotoxicity (percent viability, MTS)” value ([1]; HCT 116/200, 48 and 72 hours of exposure, FIG. 13) was “significant cytotoxic properties”, the “cytotoxic effect in combination with FdUrd (percent viability, cell number)” value ([1]; HCT 116/200, 48 hour exposure, combination with FdUrd, FIG. 16 and 17) was “dose dependent, synergistic cytotoxic effect” and the “growth inhibition of melanoma cell lines” value (melanoma cell lines) was “more than 70%”. For the same substance, the “cytotoxicity (percent viability, MTS)” value ([2]; MDA-MB-231, 48 and 72 hours of exposure, FIG. 11) was “significant cytotoxic properties”, the “lowest concentration at which cell death was indicated (MTS)” value ([2]; breast cancer) was 10 µg/mL and the “cytotoxicity (percent viability, MTS)” value [3] was “significant cytotoxic properties”. For the same substance, the “invasion of breast cancer cells” value ([4]; 1 μg/mL, after 26 hours) was “significantly inhibited”, the “invasion of breast cancer cells” value ([4]; 10 μg/mL, after 26 hours) was “significantly inhibited” and the “invasion of breast cancer cells” value ([4]; after 20 hours of incubation) was “significantly inhibited”. For the same substance, the “number of cell lines whose growth was inhibited” value ([5]; 48 hours, 59 cell lines screened) was 55 of the 59, the “average inhibition of percent growth across all 59 cell lines” value ([5]; after 48 hours) was 47% and the “cytotoxicity (percent viability, MTS)” value [6] was “significant cytotoxic properties”. The “cytotoxicity (percent viability, MTS)” value [7] was “significant cytotoxic properties”, the “cytotoxicity (percent viability, MTS)” value ([8]; HCT-116, 48 and 72 hours of exposure, FIG. 12) was “significant cytotoxic properties” and the “lowest concentration at which cell death was indicated (MTS)” value ([8]; colon cancer) was 10 µg/mL. The “percent of cells in S phase” value (SKMEL5 melanoma cells; SKMEL5, after 24 hours, 17.3 μM (method) / 15 μM (figure legend)) was “increase in the percent of cells in S phase” and the sub-G1 population (SKMEL5 melanoma cells; SKMEL5, up to 72 hours) was “low sub-G1 population”.
